The test system of assay [1] is JJ5 Breast Cancer cells. The experiment in a line: Binding of EGF-111In-labeled transferrin composition to JJ5 breast cancer cells (radioligand binding, kinetics, internalization). The arrangement: species or system human. Here is the method:
For the normal breast cell line HBL-100, 8000 EGFR/cell has been reported. The expression of EGFR in breast cancer cell lines has a reported range of 800 EGFR/cell for MCF-7 cells to 10^6 EGFR/cell for MDA-MB-468 cells. […] Utilizing the Auger electron emitter ^111In was used in the initial experiments to illustrate the utility of the invention using EGF-111In-labeled transferrin compositions. The EGF-^111-In-labeled transferrin (0.25-80 ng) was incubated with 1.5×10^6 cells/dish JJ5 Breast Cancer (prepared from BCBM JJ5) cells in 1 mL of 0.1% human serum albumin in 35 mm multiwell culture dishes at 37° C. for 30 minutes. The cells were transferred to a centrifuge tube and centrifuged. The cell pellet was separated from the supernatant and counted in a g-scintillation counter to determine bound (B) and free (F) radioactivity. Non-specific binding was determined by conducting the assay in 100 nM hEGF. The kinetics of binding was determined by incubating 1 ng of EGF-^111In-labeled transferrin composition with 3×10^6 JJ5 Breast Cancer cells at 37° C. and determining the proportion of radioactivity bound to the cells at various times up to 24 hours. Internalized fraction was measured by determining the proportion of radioactivity which could not be displaced from the cell surface by 100 nM hEGF. Cell-associated binding (surface-binding and intracellular accumulation) was expressed as a percentage of medium radioactivity bound per mg of cell study protein.

Assay [2] deals with JJ5 Breast Cancer cells. Briefly: Cytotoxicity (colony-forming) assay against JJ5 breast cancer cells. The format is cell-based, human. The settings on record: 14 days. Here is the method:
JJ5 breast cancer cells were incubated with increasing amounts EGF-^111In-labeled transferrin composition or ^111In-oxine, centrifuged to remove free ligand, assayed and then seeded into 50 mm culture dishes. The number of cells seeded was varied from 3×10^4 to 3×10^6 cells to obtain approximately 400 viable colonies/dish taking into account the plating efficiency and the expected level of cytotoxicity. Control dishes contained JJ5 breast cancer cells which were incubated with normal saline. Growth medium was added and the cells were cultured at 37° C./5% CO^2 for 14 days. The growth medium was removed and the colonies were stained with methylene blue (1% in a 1:1 mixture of ethanol and water) then washed twice. The number of colonies per dish was counted using a manual colony counter (Manostat Corp). The plating efficiency was calculated by dividing the number of colonies observed by the number of cells seeded in each dish. The surviving fraction at increasing amounts of EGF-^111In-labeled transferrin composition or ^111In-oxine was calculated by dividing the plating efficiency for dishes containing treated cells with that observed for control dishes with normal saline.

Assay [3] deals with JJ5 Breast Cancer cells. Briefly: Growth inhibition assay against JJ5 breast cancer cells. The format is cell-based, human. The settings on record: 4 days culture. Here is the method: JJ5 breast cancer cells (prepared from BCBM JJ5) expressing approximately 10^6 epidermal growth factor receptors/cell were incubated with EGF-^111In-labeled transferrin composition, unlabeled hEGF or ^111In-oxine, centrifuged to remove free ligand, then assayed and seeded (10^6 cells/dish) into 35 mm culture dishes. Growth medium was added and the cells were cultured at 37° C./5% CO^2 for 4 days. The cells were then recovered by trypsinization and counted in a hemocytometer. Control dishes contained cells cultured in growth medium containing ^111In-DTPA or growth medium alone.

For the compound “EGF-^111In-labeled transferrin composition: human EGF linked to human transferrin radiolabeled with Auger electron emitter 111In at the iron-binding sites”, the “internalization by cancer cells (in words)” value with JJ5 Breast Cancer cells [1] (JJ5 cells) is on record as “rapidly internalized”. Besides, in the assay on JJ5 Breast Cancer cells [1] (JJ5 cells, 37° C.), the “binding by the breast cancer cells (kinetics, in words)” value is given as “rapidly bound” and the “retained by the breast cancer cells” value is recorded as “at least 24 hours”. Further, the “affinity constant for binding to JJ5 cells” value in the assay with JJ5 Breast Cancer cells [1] (JJ5 cells, 37° C., 30 minutes) stood at 8e+08 L/mol. For the same compound, the “111In radioactivity lost from the cells in vitro” value in the assay with JJ5 Breast Cancer cells [1] (over a 24 hour period at 37° C.) is reported as less than 8%. For the same compound, the “reduction in cell survival for JJ5 cells” value in the assay on JJ5 Breast Cancer cells [2] (8 pCi/cell) is 99%. Besides, the “growth inhibition of the JJ5 cells compared to the medium control” value with JJ5 Breast Cancer cells [3] (3.4 pCi/cell) stood at 83%.

On to `[In+3].[O-]c1cccc2cccnc12.[O-]c1cccc2cccnc12.[O-]c1cccc2cccnc12` [^111In-oxine, reference compound], for which the cell killing result with JJ5 Breast Cancer cells [2] (<6 pCi/cell) is listed as “greater than 99%”. In addition, in the assay with JJ5 Breast Cancer cells [3] (3.5 pCi/cell), the “growth inhibition of the JJ5 cells” value was determined as 91%.

The record behind these values is patent US20040220084A1, “Methods for nucleic acid delivery” (priority 2003, published 2004).
